From ChEMBL document CHEMBL1122818, “Synthesis and biological activity of certain 6-substituted and 2,6-disubstituted 2'-deoxytubercidins prepared via the stereospecific sodium salt glycosylation procedure” (J Med Chem, 1985)

Columns and labels:
[1] = system: Human respirovirus 3; assay: In vitro antiviral activity was tested against, parainfluenza type 3 (Para 3) virus; assay type: functional; details: read-out: ED50 (the source's name)
[2] = system: Measles morbillivirus; assay: In vitro antiviral activity was tested against, measles virus; assay type: functional; details: read-out: ED50 (the source's name)
[3] = system: Human alphaherpesvirus 2; assay: In vitro antiviral activity was tested against, herpes simplex type 2 virus (HSV-2); assay type: functional; details: read-out: ED50 (the source's name)
[4] = system: P388; assay: In vitro inhibitory effect was tested for cytostatic activity on the growth of lymphoid neoplasm P388 leukemic cell lines; assay type: functional; details: Mus musculus, read-out: ID50 (the source's name)
[5] = system: Vaccinia virus; assay: In vitro antiviral activity was tested against, vaccinia virus (VV); assay type: functional; details: Orthopoxvirus vaccinia; read-out: ED50 (the source's name)
[6] = system: L1210; assay: In vitro inhibitory effect was tested for cytostatic activity on the growth of murine leukemic L1210 cell lines; assay type: functional; details: Mus musculus, read-out: ID50 (the source's name)
[7] = Toxic level was evaluated; assay type: ADME
[8] = system: Measles morbillivirus; assay: In vitro antiviral activity was tested against, measles virus; b=Too insoluble to test; assay type: functional, organism-based
[9] = system: Vaccinia virus; assay: In vitro antiviral activity was tested against, vaccinia virus (VV); b=Too insoluble to test; assay type: functional, organism-based; details: Orthopoxvirus vaccinia
[10] = system: Human alphaherpesvirus 2; assay: In vitro antiviral activity was tested against, herpes simplex type 2 virus (HSV-2); b=Too insoluble to test; assay type: functional, organism-based
[11] = system: Human respirovirus 3; assay: In vitro antiviral activity was tested against, parainfluenza type 3 (Para 3) virus; b=Too insoluble to test; assay type: functional, organism-based
[12] = Toxic level was evaluated; b=Too insoluble to test; assay type: ADME
[13] = system: Human respirovirus 3; assay: In vitro antiviral activity was tested against, parainfluenza type 3 (Para 3) virus; details: read-out: ED50 (the source's name)
[14] = system: Measles morbillivirus; assay: In vitro antiviral activity was tested against measles virus; assay type: functional; details: read-out: ED50 (the source's name)
[15] = system: Human alphaherpesvirus 2; assay: In vitro antiviral activity was tested against herpes simplex type 2 virus (HSV-2); assay type: functional; details: read-out: ED50 (the source's name)
[16] = system: Vaccinia virus; assay: In vitro antiviral activity was tested against vaccinia virus (VV); assay type: functional; details: Orthopoxvirus vaccinia; read-out: ED50 (the source's name)
[17] = Toxic level was evaluated; None; assay type: ADME

Work on Nc1nc(Cl)nc2c1ncn2[C@H]1C[C@H](O)[C@@H](CO)O1 [CLADRIBINE] yielded an EC50 [1] greater than 500 µM, an EC50 [2] greater than 500 µM and an EC50 [3] of 5 µM. For the same compound, the IC50 [4] was 0.032 µM, the EC50 [5] was 5 µM and the IC50 [6] was 0.026 µM. It also gave a Toxic level [7] of 0.005 mM.

CSc1nc(N)c2cc(C)n([C@H]3C[C@H](O)[C@@H](CO)O3)c2n1 showed an EC50 [1] greater than 5000 µM, an EC50 [2] of 250 µM and an EC50 [3] of 1300 µM. It also gave an EC50 [5] of 1000 µM and a Toxic level [7] of 1.6 mM.

With Cc1nc(N)c2ccn([C@H]3C[C@H](O)[C@@H](CO)O3)c2n1 the EC50 [1] was greater than 5000 µM, the EC50 [2] was 920 µM and the EC50 [3] was 1600 µM. The EC50 [5] was 3100 µM and the Toxic level [7] was 1.6 mM.

Work on CSc1nc(N)c2cc(Cl)n([C@H]3C[C@H](O)[C@@H](CO)O3)c2n1 yielded an EC50 [1] of 340 µM, an EC50 [2] of 100 µM and an EC50 [3] of 580 µM. It also gave an EC50 [5] greater than 500 µM and a Toxic level [7] of 0.5 mM.

For CSc1nc(Cl)c2cc(C)n([C@H]3C[C@H](O)[C@@H](CO)O3)c2n1, the ED50 [8] was “Too insoluble”, the ED50 [9] was “Too insoluble” and the ED50 [10] was “Too insoluble”. For the same compound, the ED50 [11] was “Too insoluble” and the Toxic level [12] was “Too insoluble”.

For OC[C@H]1O[C@@H](n2ccc3cncnc32)C[C@@H]1O, the EC50 [1] was greater than 5000 µM, the EC50 [2] was 250 µM and the EC50 [3] was 1400 µM. It also gave an EC50 [5] greater than 5000 µM and a Toxic level [7] of 5 mM.

For Cc1cc2cncnc2n1[C@H]1C[C@H](O)[C@@H](CO)O1, the EC50 [13] was 1100 µM, the EC50 [14] was 300 µM and the EC50 [15] was 74 µM. The Toxic level [7] was 5 mM and the EC50 [16] was 1000 µM.

With OC[C@H]1O[C@@H](n2ccc3c(S)ncnc32)C[C@@H]1O the EC50 [1] was greater than 5000 µM, the EC50 [2] was 27 µM and the EC50 [3] was 160 µM. For the same compound, the EC50 [5] was 1100 µM and the Toxic level [7] was 5 mM.

With NC(=O)c1ncn([C@@H]2O[C@H](CO)[C@@H](O)[C@H]2O)n1 [RIBAVIRIN] the EC50 [1] was 160 µM, the EC50 [2] was 30 µM and the Toxic level [17] was “Non-toxic”. For the same compound, the EC50 [3] was 190 µM and the EC50 [5] was 85 µM.

Compound Nc1ncnc2c1cc(Cl)n2[C@H]1C[C@H](O)[C@@H](CO)O1 has an EC50 [1] of 1600 µM, an EC50 [2] of 360 µM and an EC50 [3] of 1100 µM. It also gave an EC50 [5] of 330 µM and a Toxic level [7] of 1.6 mM.

Nc1ncnc2c1ccn2[C@H]1C[C@H](O)[C@@H](CO)O1 [2'-Deoxytubercidin] gave an EC50 [1] of 660 µM, an EC50 [2] of 210 µM and an EC50 [3] of 50 µM. The IC50 [4] was 49 µM, the EC50 [5] was 160 µM and the IC50 [6] was 80 µM. The Toxic level [7] was 1.6 mM.

Work on OC[C@H]1O[C@@H](n2ccc3c(Cl)ncnc32)C[C@@H]1O yielded an EC50 [1] of 960 µM, an EC50 [2] of 89 µM and an EC50 [3] of 650 µM. It also gave an IC50 [4] of 73 µM, an EC50 [5] greater than 5000 µM and an IC50 [6] of 59 µM. The Toxic level [7] was 1.6 mM.

Cc1nc(N)c2cc(Cl)n([C@H]3C[C@H](O)[C@@H](CO)O3)c2n1 gave an EC50 [1] greater than 1600 µM, an EC50 [2] of 360 µM and an EC50 [3] of 500 µM. The EC50 [5] was 840 µM and the Toxic level [7] was 0.5 mM.

Compound CSc1ncc2cc(C)n([C@H]3C[C@H](O)[C@@H](CO)O3)c2n1 has an EC50 [1] of 1100 µM, an EC50 [2] of 95 µM and an EC50 [3] of 2900 µM. For the same compound, the EC50 [5] was 840 µM and the Toxic level [7] was greater than 5 mM.

In the case of Nc1nc(Cl)nc2c1ccn2[C@H]1C[C@H](O)[C@@H](CO)O1, the EC50 [1] is reported as greater than 5000 µM, the EC50 [2] is reported as greater than 5000 µM and the EC50 [3] is reported as greater than 5000 µM. It also gave an EC50 [5] of 1100 µM and a Toxic level [7] of 0.5 mM.

With Cc1cc2c(N)ncnc2n1[C@H]1C[C@H](O)[C@@H](CO)O1 the EC50 [1] was 500 µM, the EC50 [2] was 500 µM and the EC50 [3] was 2100 µM. The EC50 [5] was 1000 µM and the Toxic level [7] was 5 mM.
